Where two headings read alike, the source gives them in different places.
What was measured:
HIV-1 integrase = target: T1, HIV-1 integrase (Human immunodeficiency virus type 1 group M subtype B, UniProt P04585); assay: Strand transfer inhibition assay (HIV-1 integrase assay kit); format: biochemical; conditions: for IC50: average of three independent experiments; for Improvement of integrase inhibitory activity over the parent compound 3: ratio of IC50s versus compound 3
T1 construct: purchased Abnova
Protocol: The strand transfer assay was performed using an HIV-1 integrase assay kit (Abnova, Taipei, CN) according to the manufacturer’s instructions. Each sample was dissolved in DMSO and diluted to a final desired concentration (80, 40, 20, 10, 5 μM) with reaction buffer. Briefly, 100 μL of DS DNA solution was added to each well and incubated for 30 min at 37 °C, and the liquid was removed from the wells and washed 3 times with wash buffer. Then, 200 μL of blocking buffer was added to each well and incubated for 30 min in a 37 °C incubator. Followed by the aspiration of the liquid, each well was washed 3 times with reaction buffer, and 100 μL integrase enzyme solution was added to each well and incubated under similar conditions. Sequentially, 50 μL reaction buffer containing different concentrations of samples was added to each well and incubated for 5 min at room temperature. To each well was added 50 μL of TS DNA solution, and the reactions were mixed gently and incubated for 30 min at 37 °C. Then, each well was washed 3 times with wash solution, incubated with 100 μL HRP antibody and incubated for 30 min at 37 °C. After washing the plate under the same conditions, 100 μL TMB peroxidase substrate solution was added to each well and incubated at room temperature for 10 min. To terminate the reaction, 100 μL TMB stop solution was directly added to each well and the absorbance of the sample was determined using a plate reader (ELx800UV, Bio-Tek Instrument Inc., Winooski, VT, USA) at 450 nm.

[1] = Cytotoxicity assay (MTT) on MT-4 cells; format: cell-based, human; conditions: human, five days, read-out: CC50, concentration that inhibits the proliferation of MT-4 cells by 50%
Protocol: (§1) The cytotoxicity of the title compounds was tested through MTT analysis on MT-4 cells. Cells were seeded in 96-well plates with a density of 50,000 cells/well and coincubated with serial diluted compounds (2.5, 5, 10, 20, 40, and 80 μM) at 37 °C for five days. MTT (Sigma) was then added to each well to a final concentration of 0.5 mg/mL and incubated for 2 h. Subsequently, the medium was decanted, and 150 μL of DMSO was added to each well. The absorbance was obtained using a microplate reader at 570 nm, and all measurements were conducted three times under the same condition. Finally, 50% cytotoxicity concentration (CC50) values were calculated by Graphpad Prism 8.

MT-4 cells = assay: Cytotoxicity assay (MTT) on MT-4 cells; format: cell-based, human; conditions: five days, read-out: CC50, concentration that inhibits the proliferation of MT-4 cells by 50%
Protocol: as §1

[2] = read-out: IC50, concentration required to inhibit the in vitro strand-transfer step of integrase by 50%
[3] = IC50, concentration required to inhibit the in vitro strand-transfer step of integrase by 50%

| Structure (SMILES) | IC50 (HIV-1 integrase; [2]) [µM] | melting point [°C] | IC50 (HIV-1 integrase; [3]) [µM] | CC50 at 5 days [1] [µM] | CC50 (MT-4 cells) [µM] | Improvement of integrase inhibitory activity over the parent compound 3 (HIV-1 integrase) [fold] |
| --- | --- | --- | --- | --- | --- | --- |
| COc1ccc([C@H]2CC(=O)Nc3c(S(=O)(=O)c4ccccc4)csc32)cc1OC1CCCC1 [Compound 2] | 33 ± 1.29 | 113 to 116.7 |  |  |  |  |
| COc1cc(OC)c([C@H]2c3c(oc4ccc(Cl)cc4c3=O)C(=O)N2c2cc(C)on2)cc1OC [Compound 4] | 18.5 ± 1.06 | 271.4 to 279 |  |  |  |  |
| Clc1ccc2c(c1)C(c1ccccc1Cl)=NCc1nnc(CSCc3ccccc3)n1-2 [Compound 5] |  | 164.7 to 167.8 | 47.4 ± 1.45 |  |  |  |
| CC(C)OC(=O)c1[nH]c2cc(Nc3ccc(F)cc3F)ccc2c1COCc1ccccc1F [Compound 19b, Isopropyl 6-((2,4-difluorophenyl)amino)-3-(((2-fluorobenzyl)oxy)methyl)-1H-indole-2-carboxylate] | 1.7 ± 0.15 | 171.8 to 175.3 |  | > 29 | 29.4 ± 1.76 |  |
| O=C(O)c1[nH]c2cc(Nc3ccc(F)cc3F)ccc2c1COCc1ccccc1F [Compound 20b, 6-((2,4-difluorophenyl)amino)-3-(((2-fluorobenzyl)oxy)methyl)-1H-indole-2-carboxylic acid] | 0.64 ± 0.06 | 178.5 to 181.8 |  | > 80 |  |  |
| COc1ccc(Nc2ccc3c(COCc4ccc(C(F)(F)F)cc4)c(C(=O)OC(C)C)[nH]c3c2)cc1F [Compound 16a, Isopropyl 6-((3-fluoro-4-methoxyphenyl)amino)-3-(((4-(trifluoromethyl)benzyl)oxy)methyl)-1H-indole-2-carboxylate] | 3.47 ± 0.82 | 142.3 to 145.6 |  | > 80 |  |  |
| COc1ccc2[nH]c(C(=O)O)c(CC(=O)O)c2c1 [Compound 3] | 12.41 ± 0.07 | 159.7 to 163.2 |  |  |  |  |
| Cc1ccc(CNC(=O)CCS(=O)(=O)c2ccc3c(c2)CCN3C(=O)C2CC2)cc1 [Compound 1] | 39.1 ± 1.21 | 173.4 to 175.3 |  |  |  |  |
| CC(C)OC(=O)c1[nH]c2cc(Br)ccc2c1COCc1ccc(C(F)(F)F)cc1 [Compound 15, Isopropyl 6-bromo-3-(((4-(trifluoromethyl)benzyl)oxy)methyl)-1H-indole-2-carboxylate] |  |  | 2.34 ± 0.31 | > 80 |  | 5.3 |
| CC(C)OC(=O)c1[nH]c2cc(Nc3ccc(F)cc3F)ccc2c1COCc1ccc(C(F)(F)F)cc1 [Compound 16b, Isopropyl 6-((2,4-difluorophenyl)amino)-3-(((4-(trifluoromethyl)benzyl)oxy)methyl)-1H-indole-2-carboxylate] | 1.06 ± 0.25 | 149.7 to 152.5 |  | > 80 |  |  |
| COc1ccc(Nc2ccc3c(COCc4ccccc4F)c(C(=O)OC(C)C)[nH]c3c2)cc1F [Compound 19a, Isopropyl 6-((3-fluoro-4-methoxyphenyl)amino)-3-(((2-fluorobenzyl)oxy)methyl)-1H-indole-2-carboxylate] | 1.05 ± 0.32 | 141.2 to 144.5 |  | > 29 | 37.6 ± 3.64 |  |
| O=C(O)c1[nH]c2cc(Nc3ccc(F)cc3F)ccc2c1COCc1ccc(C(F)(F)F)cc1 [Compound 17b, 6-((2,4-difluorophenyl)amino)-3-(((4-(trifluoromethyl)benzyl)oxy)methyl)-1H-indole-2-carboxylic acid] | 0.39 ± 0.09 | 157.3 to 160.5 |  | > 80 |  |  |
| O=C(O)c1[nH]c2cc(Br)ccc2c1COCc1ccccc1F [Compound 21, 6-bromo-3-(((2-fluorobenzyl)oxy)methyl)-1H-indole-2-carboxylic acid] | 6.85 ± 0.66 | 174.3 to 178 |  | > 80 |  |  |
| O=C(NCc1ccc(F)cc1)c1coc(CN(Cc2ccc3c(c2)OCO3)Cc2ccc3c(c2)OCO3)n1 [Compound 8] | 28.2 ± 1.07 | 171.5 to 176.8 |  |  |  |  |
| O=C(NC1CCCC1)c1ccc2c(=O)n(Cc3ccco3)c(=O)n(Cc3cccc([N+](=O)[O-])c3)c2c1 [Compound 6] | 22.6 ± 0.58 | 235.3 to 241.2 |  |  |  |  |
| COc1ccc(Nc2ccc3c(COCc4ccc(C(F)(F)F)cc4)c(C(=O)O)[nH]c3c2)cc1F [Compound 17a, 6-((3-fluoro-4-methoxyphenyl)amino)-3-(((4-(trifluoromethyl)benzyl)oxy)methyl) -1H-indole-2-carboxylic acid] | 0.93 ± 0.07 | 134.8 to 136.3 |  | > 80 |  |  |
| O=C(/C=C/c1ccc2c(c1)OCO2)C[C@@]1(O)C(=O)N(Cc2ccc(Cl)cc2)c2ccccc21 [Compound 7] | 21.4 ± 0.26 | 147 to 148.2 |  |  |  |  |
| Cc1c2c(=O)n(-c3nc4ccccc4s3)n(Cc3ccccc3)c2cc(=O)n1Cc1ccc2c(c1)OCO2 [Compound 10] | 22.3 ± 0.43 | 139.9 to 143.6 |  |  |  |  |
| CC(C)OC(=O)c1[nH]c2cc(Br)ccc2c1COCc1ccccc1F [Compound 18, Isopropyl 6-bromo-3-(((2-fluorobenzyl)oxy)methyl)-1H-indole-2-carboxylate] |  | 154.6 to 158.9 | 1.92 ± 0.07 | > 29 | 45.3 ± 2.73 | 6.5 |
| O=c1c2cc(N3CCOCC3)ccc2nc(SCc2cc(=O)n3cc(Cl)ccc3n2)n1Cc1ccc2c(c1)OCO2 [Compound 9] | 32.8 ± 0.83 | 239 to 240.1 |  |  |  |  |
| Cc1nnc(C(=O)NC(C)(C)c2nc(C(=O)NCc3ccc(F)cc3)c(O)c(=O)n2C)o1 [RAL, raltegravir, reference compound] |  |  |  | > 80 |  |  |
| COc1ccc(Nc2ccc3c(COCc4ccccc4F)c(C(=O)O)[nH]c3c2)cc1F [Compound 20a, 6-((3-fluoro-4-methoxyphenyl)amino)-3-(((2-fluorobenzyl)oxy)methyl)-1H-indole-2-carboxylic acid] | 0.13 ± 0.02 | 169.9 to 173.7 |  | > 80 |  |  |

Reference: publication PMC10745497, “The Discovery of Indole-2-carboxylic Acid Derivatives as Novel HIV-1 Integrase Strand Transfer Inhibitors” (Molecules, 2023)
